Among the data in ChEMBL document CHEMBL4680144, “N-thiadiazole-4-hydroxy-2-quinolone-3-carboxamides bearing heteroaromatic rings as novel antibacterial agents: Design, synthesis, biological evaluation and target identification” (Eur J Med Chem, 2020) are MIC and IC50 values, retold here.

Usually MIC stands for the lowest concentration found to suppress growth. The term IC50 denotes the concentration that gives 50% inhibition.

In assay [1] the test system is Staphylococcus aureus. Description: Antibacterial activity against wild type methicillin-sensitive Staphylococcus aureus ATCC 29213 assessed as inhibition of bacterial growth incubated for 18 to 24 hrs by broth microdilution method. Conditions: time 18-24 hrs. The class given is functional.
A short description of assay [2]: Inhibition of Staphylococcus aureus Gyrase B using linear pBR322 DNA as substrate incubated for 30 mins in presence of ATP by ADP-Glo assay.
Assay [3] deals with Enterococcus faecalis. Briefly: Antibacterial activity against vancomycin-resistant Enterococcus faecalis ATCC 51575 assessed as inhibition of bacterial growth incubated for 18 to 24 hrs by broth microdilution method. The class given is functional. The conditions noted are these: time 18-24 hrs. In general terms: Dilution methods test growth across graded concentrations, often in twofold steps.

Assay [4] concerns Staphylococcus epidermidis. Description: Antibacterial activity against methicillin-resistant Staphylococcus epidermidis clinical isolate 15-1 assessed as inhibition of bacterial growth incubated for 18 to 24 hrs by broth microdilution method. The class given is functional. Conditions: time 18-24 hrs.
The subject of assay [5] is Enterococcus faecium. Description: Antibacterial activity against Enterococcus faecium clinical isolate 15-2 assessed as inhibition of bacterial growth incubated for 18 to 24 hrs by broth microdilution method. The assay is classed as functional. The conditions noted are these: time 18-24 hrs.
Assay [6] concerns Staphylococcus aureus. Description: Antibacterial activity against methicillin-resistant Staphylococcus aureus clinical isolate 15-3 assessed as inhibition of bacterial growth incubated for 18 to 24 hrs by broth microdilution method. The class given is functional. Conditions: time 18-24 hrs.
Assay [7] deals with Staphylococcus aureus. Briefly: Antibacterial activity against methicillin resistant and vancomycin-intermediate sensitive Staphylococcus aureus ATCC 700699 assessed as inhibition of bacterial growth incubated for 18 to 24 hrs by broth microdilution method. The class given is functional. The conditions noted are these: time 18-24 hrs.
For assay [8], the system named is Staphylococcus aureus. Briefly: Antibacterial activity against methicillin-resistant Staphylococcus aureus clinical isolate 15-2 assessed as inhibition of bacterial growth incubated for 18 to 24 hrs by broth microdilution method. The class given is functional. Conditions: time 18-24 hrs.
Assay [9] concerns Staphylococcus epidermidis. Description: Antibacterial activity against methicillin-resistant Staphylococcus epidermidis clinical isolate 15-3 assessed as inhibition of bacterial growth incubated for 18 to 24 hrs by broth microdilution method. The conditions noted are these: time 18-24 hrs. The class given is functional.
The test system of assay [10] is Staphylococcus epidermidis. Briefly: Antibacterial activity against methicillin-sensitive Staphylococcus epidermidis clinical isolate 15-4 assessed as inhibition of bacterial growth incubated for 18 to 24 hrs by broth microdilution method. The conditions noted are these: time 18-24 hrs. The class given is functional.
The subject of assay [11] is Enterococcus faecalis. Briefly: Antibacterial activity against vancomycin-resistant Enterococcus faecalis ATCC 700802 assessed as inhibition of bacterial growth incubated for 18 to 24 hrs by broth microdilution method. The class given is functional. The conditions noted are these: time 18-24 hrs.
Assay [12] relates to Staphylococcus aureus. Briefly: Antibacterial activity against methicillin-resistant Staphylococcus aureus clinical isolate 15-8 assessed as inhibition of bacterial growth incubated for 18 to 24 hrs by broth microdilution method. The assay is classed as functional. The conditions noted are these: time 18-24 hrs.
Assay [13] relates to Staphylococcus aureus. Description: Antibacterial activity against methicillin-resistant Staphylococcus aureus clinical isolate 15-6 assessed as inhibition of bacterial growth incubated for 18 to 24 hrs by broth microdilution method. The class given is functional. Conditions: time 18-24 hrs.
In assay [14] the test system is Staphylococcus aureus. Briefly: Antibacterial activity against methicillin-resistant Staphylococcus aureus clinical isolate 15-1 assessed as inhibition of bacterial growth incubated for 18 to 24 hrs by broth microdilution method. The class given is functional. The conditions noted are these: time 18-24 hrs.
The subject of assay [15] is Staphylococcus aureus. Briefly: Antibacterial activity against methicillin-resistant Staphylococcus aureus clinical isolate 15-7 assessed as inhibition of bacterial growth incubated for 18 to 24 hrs by broth microdilution method. Conditions: time 18-24 hrs. The assay is classed as functional.
In assay [16] the test system is Enterococcus faecalis. Briefly: Antibacterial activity against Enterococcus faecalis clinical isolate 15-1 assessed as inhibition of bacterial growth incubated for 18 to 24 hrs by broth microdilution method. The assay is classed as functional. The conditions noted are these: time 18-24 hrs.
The subject of assay [17] is Staphylococcus aureus. Description: Antibacterial activity against methicillin resistant and vancomycin-intermediate sensitive Staphylococcus aureus ATCC 700788 assessed as inhibition of bacterial growth incubated for 18 to 24 hrs by broth microdilution method. The assay is classed as functional. Conditions: time 18-24 hrs.
Assay [18] deals with Staphylococcus epidermidis. Briefly: Antibacterial activity against methicillin-resistant Staphylococcus epidermidis clinical isolate 15-2 assessed as inhibition of bacterial growth incubated for 18 to 24 hrs by broth microdilution method. The class given is functional. Conditions: time 18-24 hrs.
Assay [19] concerns Staphylococcus epidermidis. Briefly: Antibacterial activity against methicillin-sensitive Staphylococcus epidermidis clinical isolate 15-3 assessed as inhibition of bacterial growth incubated for 18 to 24 hrs by broth microdilution method. The class given is functional. Conditions: time 18-24 hrs.
For assay [20], the system named is Enterococcus faecalis. Description: Antibacterial activity against Enterococcus faecalis clinical isolate 15-2 assessed as inhibition of bacterial growth incubated for 18 to 24 hrs by broth microdilution method. The class given is functional. Conditions: time 18-24 hrs.
Assay [21] has as its system Staphylococcus aureus. Briefly: Antibacterial activity against methicillin-resistant Staphylococcus aureus clinical isolate 15-9 assessed as inhibition of bacterial growth incubated for 18 to 24 hrs by broth microdilution method. Conditions: time 18-24 hrs. The class given is functional.
The subject of assay [22] is Enterococcus faecalis. Description: Antibacterial activity against vancomycin-resistant Enterococcus faecalis ATCC 51299 assessed as inhibition of bacterial growth incubated for 18 to 24 hrs by broth microdilution method. The class given is functional. The conditions noted are these: time 18-24 hrs.
In assay [23] the test system is Enterococcus faecium. Description: Antibacterial activity against Enterococcus faecium clinical isolate 15-1 assessed as inhibition of bacterial growth incubated for 18 to 24 hrs by broth microdilution method. The assay is classed as functional. Conditions: time 18-24 hrs.

≈ marks a conversion by molar mass, not a printed value.

On to `CCn1c(=O)c(C(=O)Nc2nnc(-c3ccc(N(C)C)cc3)s2)c(O)c2ccccc21`, for which the MIC in assay [1] was 3.12 mg/L (≈ 7.16 µM). For the same compound, the concentration for half-maximal inhibition (IC50) in [2] amounted to 2.66 µM.
Turning to `CCCCc1nnc(NC(=O)c2c(O)c3ccccc3n(CC)c2=O)s1`, the MIC in [3] came out at 8 mg/L (≈ 21.5 µM); in assay [4] it was 2 mg/L (≈ 5.37 µM); in assay [5], 2 mg/L (≈ 5.37 µM); in [6], 2 mg/L (≈ 5.37 µM); in assay [7] it was 4 mg/L (≈ 10.7 µM); in assay [8], 2 mg/L (≈ 5.37 µM). The MIC in assay [9] amounted to 2 mg/L (≈ 5.37 µM); in [10], 2 mg/L (≈ 5.37 µM); in [11], 8 mg/L (≈ 21.5 µM); in assay [12], 2 mg/L (≈ 5.37 µM); in [13], 2 mg/L (≈ 5.37 µM); in [14] it was 2 mg/L (≈ 5.37 µM). The MIC was 4 mg/L (≈ 10.7 µM) in [15]; 0.1 mg/L (≈ 0.268 µM) in assay [1]; 2 mg/L (≈ 5.37 µM) in assay [16]; 4 mg/L (≈ 10.7 µM) in assay [17]; 2 mg/L (≈ 5.37 µM) in assay [18]; 2 mg/L (≈ 5.37 µM) in [19]. Also, the MIC amounted to 2 mg/L (≈ 5.37 µM) in assay [20], 2 mg/L (≈ 5.37 µM) in [21], 8 mg/L (≈ 21.5 µM) in [22] and 2 mg/L (≈ 5.37 µM) in assay [23]. Further, in [2], the IC50 was 0.99 µM.
For `CCn1c(=O)c(C(=O)Nc2nnc(-c3ccncc3)s2)c(O)c2ccccc21`, in assay [1], the minimum inhibitory concentration (MIC) was determined as 1.56 mg/L (≈ 3.97 µM). The IC50 in [2] came to 0.24 µM.
On to `CCn1c(=O)c(C(=O)Nc2nnc(-c3cccc(OC)c3)s2)c(O)c2ccccc21`, for which the minimal inhibitory concentration (MIC) in [1] is 1.56 mg/L (≈ 3.69 µM). In addition, the IC50 in assay [2] is 2.17 µM.
Turning to `CCc1nnc(NC(=O)c2c(O)c3ccccc3n(CC)c2=O)s1`, the minimum inhibitory concentration (MIC) is 8 mg/L (≈ 23.2 µM) in assay [3]; 2 mg/L (≈ 5.81 µM) in assay [4]; 2 mg/L (≈ 5.81 µM) in [5]; 2 mg/L (≈ 5.81 µM) in assay [6]; 2 mg/L (≈ 5.81 µM) in [7]; 2 mg/L (≈ 5.81 µM) in assay [8]. In addition, the MIC came to 2 mg/L (≈ 5.81 µM) in assay [9]; 2 mg/L (≈ 5.81 µM) in assay [10]; 8 mg/L (≈ 23.2 µM) in assay [11]; 1 mg/L (≈ 2.9 µM) in [12]; 2 mg/L (≈ 5.81 µM) in [13]; 2 mg/L (≈ 5.81 µM) in assay [14]. Besides, the minimal inhibitory concentration (MIC) in [15] is 1 mg/L (≈ 2.9 µM); in [1] it was 0.78 mg/L (≈ 2.26 µM); in assay [16], 2 mg/L (≈ 5.81 µM); in [17] it was 2 mg/L (≈ 5.81 µM); in assay [18] it was 2 mg/L (≈ 5.81 µM); in [19], 2 mg/L (≈ 5.81 µM). The minimum inhibitory concentration (MIC) came to 2 mg/L (≈ 5.81 µM) in assay [20], 1 mg/L (≈ 2.9 µM) in assay [21], 8 mg/L (≈ 23.2 µM) in assay [22] and 4 mg/L (≈ 11.6 µM) in [23]. For the same compound, in [2], the IC50 came to 0.45 µM.
For `CCn1c(=O)c(C(=O)Nc2nnc(-c3ccn(C)n3)s2)c(O)c2ccccc21`, the MIC in [1] was 3.12 mg/L (≈ 7.87 µM). For the same compound, in [2], the IC50 was found to be 0.49 µM.
In the same order, the values of `CCn1c(=O)c(C(=O)Nc2nnc(-c3ccc(OC)cc3)s2)c(O)c2ccccc21` are 3.12 mg/L (≈ 7.39 µM) and 1.14 µM.
In the same order, the values of `CCn1c(=O)c(C(=O)Nc2nnc(C3CC3)s2)c(O)c2ccccc21` are 3.12 mg/L (≈ 8.75 µM) and 0.58 µM.
In the same order, the values of `CCOc1cccc(-c2nnc(NC(=O)c3c(O)c4ccccc4n(CC)c3=O)s2)c1` are 3.12 mg/L (≈ 7.15 µM) and 1.69 µM.
Regarding `CCOc1ccccc1-c1nnc(NC(=O)c2c(O)c3ccccc3n(CC)c2=O)s1`, the MIC in assay [1] came out at 12.5 mg/L (≈ 28.6 µM). Also, the IC50 in [2] worked out at 2.35 µM.
Take `CCn1c(=O)c(C(=O)Nc2nncs2)c(O)c2ccccc21`: the MIC in [1] worked out at 1.56 mg/L (≈ 4.93 µM). The IC50 in assay [2] is 0.11 µM.
Taken in the same sequence, the figures for `CCn1c(=O)c(C(=O)Nc2nnc(C3CCCC3)s2)c(O)c2ccccc21` were 6.25 mg/L (≈ 16.3 µM) and 0.55 µM.
In the same order, the values of `CCCCCCc1nnc(NC(=O)c2c(O)c3ccccc3n(CC)c2=O)s1` are 12.5 mg/L (≈ 31.2 µM) and 0.35 µM.
`CCn1c(=O)c(C(=O)Nc2nnc(C)s2)c(O)c2ccccc21`: the MIC in assay [3] was above 64 mg/L; in assay [4] it was above 64 mg/L; in assay [5], above 64 mg/L; in [6], 2 mg/L (≈ 6.05 µM); in assay [7], above 64 mg/L; in assay [8] it was 4 mg/L (≈ 12.1 µM). The MIC in [10] was above 64 mg/L; in [11] it was above 64 mg/L; in [12], 2 mg/L (≈ 6.05 µM); in assay [13], 2 mg/L (≈ 6.05 µM); in [14], 2 mg/L (≈ 6.05 µM); in assay [15], 4 mg/L (≈ 12.1 µM). The MIC is 0.78 mg/L (≈ 2.36 µM) in assay [1]; above 64 mg/L in assay [16]; above 64 mg/L in assay [17]; above 64 mg/L in assay [18]; above 64 mg/L in assay [19]; above 64 mg/L in assay [20]. Besides, the MIC in assay [21] is 4 mg/L (≈ 12.1 µM); in assay [22], above 64 mg/L; in assay [23], above 64 mg/L. Besides, in [2], the IC50 amounted to 0.24 µM.
On to `CCn1c(=O)c(C(=O)Nc2nnc(-c3cccc(F)c3)s2)c(O)c2ccccc21`, for which, in assay [1], the MIC was 6.25 mg/L (≈ 15.2 µM). Besides, the IC50 in assay [2] turned out to be 1.81 µM.
